Assay results reported in patent US7098340B2, “Benzyl sulfonamide derivatives” (Warner Lambert Company LLC, priority 2003, dated 2006).

Each compound was assayed against T1, androgen receptor (Homo sapiens, UniProt P10275) (assay: AR Antagonist Cell Assay (MMTV-luciferase reporter, DHT-stimulated)). Details: MDA-MB453-MMTV clone 54-19 cells; antagonism of 100 pM DHT, 17 hr, luciferase readout.
T1 sequence (P10275 1-920 Q868H): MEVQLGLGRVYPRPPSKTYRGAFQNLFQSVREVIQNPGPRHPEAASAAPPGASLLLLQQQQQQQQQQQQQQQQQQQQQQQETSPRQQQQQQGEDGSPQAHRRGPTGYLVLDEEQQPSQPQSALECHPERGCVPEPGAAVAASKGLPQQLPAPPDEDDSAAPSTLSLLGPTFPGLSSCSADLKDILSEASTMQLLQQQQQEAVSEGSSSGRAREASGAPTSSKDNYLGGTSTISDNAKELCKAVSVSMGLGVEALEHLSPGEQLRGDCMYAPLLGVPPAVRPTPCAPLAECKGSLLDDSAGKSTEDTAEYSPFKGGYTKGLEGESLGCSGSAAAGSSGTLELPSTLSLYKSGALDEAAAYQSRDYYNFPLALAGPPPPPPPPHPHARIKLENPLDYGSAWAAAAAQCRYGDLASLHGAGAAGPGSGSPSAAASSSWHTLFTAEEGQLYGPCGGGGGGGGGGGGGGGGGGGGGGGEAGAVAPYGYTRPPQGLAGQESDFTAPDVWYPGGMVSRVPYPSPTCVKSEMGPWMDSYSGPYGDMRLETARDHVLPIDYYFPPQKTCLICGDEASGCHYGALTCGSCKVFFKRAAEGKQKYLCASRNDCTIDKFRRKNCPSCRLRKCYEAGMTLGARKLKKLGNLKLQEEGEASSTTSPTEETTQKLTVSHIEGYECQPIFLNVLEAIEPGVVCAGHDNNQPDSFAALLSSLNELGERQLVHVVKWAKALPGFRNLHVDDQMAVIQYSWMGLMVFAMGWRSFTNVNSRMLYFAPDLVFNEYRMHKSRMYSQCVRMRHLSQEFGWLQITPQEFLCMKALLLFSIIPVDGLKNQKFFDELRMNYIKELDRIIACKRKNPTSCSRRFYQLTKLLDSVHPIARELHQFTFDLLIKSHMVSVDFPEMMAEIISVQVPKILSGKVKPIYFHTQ
Type: cell-based
Method in brief: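 MDA-MB453 cells stably carrying MMTV-ARE-firefly luciferase, in 1% charcoal-treated serum, preincubated 30 min with compound (10 uM or 1 uM) then stimulated with 100 pM DHT for 17 h at 37° C. Luminescence read; result as % inhibition of DHT fold induction.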

Structure (SMILES)	IC50
Cc1ccccc1CNS(=O)(=O)c1ccc(Cc2ccc3oc(=O)cc(C(F)(F)F)c3c2)cc1 [Example 171, N-(2-Methylbenzyl)-4-(2-oxo-4-trifluoromethyl-2H-chromen-6-ylmethyl)benzenesulfonamide]	9.62 µM
O=c1cc(C(F)(F)F)c2cc(Cc3ccc(S(=O)(=O)NCCC4=CCCCC4)cc3)ccc2o1 [Example 175, N-(2-Cyclohex-1-enylethyl)-4-(2-oxo-4-trifluoromethyl-2H-chromen-6-ylmethyl)benzenesulfonamide]	8.5 µM
Cc1ccc(F)cc1CNS(=O)(=O)c1ccc(Cc2ccc3oc(=O)cc(C(F)(F)F)c3c2)cc1 [Example 185, N-(5-Fluoro-2-methylbenzyl)-4-(2-oxo-4-trifluoromethyl-2H-chromen-6-ylmethyl)-benzenesulfonamide]	4.06 µM
O=C1CCCN1CCCNS(=O)(=O)c1ccc(Cc2ccc3oc(=O)cc(C(F)(F)F)c3c2)cc1 [Example 187, N-[3-(2-Oxopyrrolidin-1-yl)propyl]-4-(2-oxo-4-trifluoromethyl-2H-chromen-6-ylmethyl)benzenesulfonamide]	3.44 µM
O=c1cc(C(F)(F)F)c2cc(Cc3ccc(S(=O)(=O)NCc4c(F)cccc4F)cc3)ccc2o1 [Example 188, N-(2,6-Difluorobenzyl)-4-(2-oxo-4-trifluoromethyl-2H-chromen-6-ylmethyl)benzenesulfonamide]	1.91 µM
COc1ccccc1CCNS(=O)(=O)c1ccc(Cc2ccc3oc(=O)cc(C(F)(F)F)c3c2)cc1 [Example 190, N-[2-(2-Methoxyphenyl)ethyl]-4-(2-oxo-4-trifluoromethyl-2H-chromen-6-ylmethyl)benzenesulfonamide]	5.41 µM
O=c1cc(C(F)(F)F)c2cc(Cc3ccc(S(=O)(=O)NC4CCC(O)CC4)cc3)ccc2o1 (centres unmarked) [Example 193, N-(4-Hydroxycyclohexyl)-4-(2-oxo-4-trifluoromethyl-2H-chromen-6-ylmethyl)benzenesulfonamide]	9.11 µM
CSc1ccccc1CNS(=O)(=O)c1ccc(Cc2ccc3oc(=O)cc(C(F)(F)F)c3c2)cc1 [Example 194, N-(2-Methylsulfanylbenzyl)-4-(2-oxo-4-trifluoromethyl-2H-chromen-6-ylmethyl)benzenesulfonamide]	8 µM
Cc1ccc(CNS(=O)(=O)c2ccc(Cc3ccc4oc(=O)cc(C(F)(F)F)c4c3)cc2)c(F)c1F [Example 197, N-(2,3-Difluoro-4-methylbenzyl)-4-(2-oxo-4-trifluoromethyl-2H-chromen-6-ylmethyl)benzenesulfonamide]	1.94 µM
Cc1ccc(F)c(CNS(=O)(=O)c2ccc(Cc3ccc4oc(=O)cc(C(F)(F)F)c4c3)cc2)c1Cl [Example 200, N-(2-Chloro-6-fluoro-3-methylbenzyl)-4-(2-oxo-4-trifluoromethyl-2H-chromen-6-ylmethyl)benzenesulfonamide]	6.91 µM
O=c1cc(C(F)(F)F)c2cc(Cc3ccc(S(=O)(=O)NCc4c(F)ccc(F)c4Cl)cc3)ccc2o1 [Example 202, N-(2-Chloro-3,6-difluorobenzyl)-4-(2-oxo-4-trifluoromethyl-2H-chromen-6-ylmethyl)benzenesulfonamide]	4.42 µM
O=c1cc(C(F)(F)F)c2cc(Cc3ccc(S(=O)(=O)NCc4cc(C(F)(F)F)ccc4F)cc3)ccc2o1 [Example 204, N-(2-Fluoro-5-trifluoromethylbenzyl)-4-(2-oxo-4-trifluoromethyl-2H-chromen-6-ylmethyl)benzene-sulfonamide]	> 10 µM
CCOC(=O)CC(NS(=O)(=O)c1ccc(Cc2ccc3oc(=O)cc(C(F)(F)F)c3c2)cc1)c1ccccc1 (centres unmarked) [Example 205, 3-[4-(2-Oxo-4-trifluoromethyl-2H-chromen-6-ylmethyl)-benzenesulfonylamino]-3-phenylpropionic acid ethyl ester]	3.43 µM

Other lines, results leading:

IC50	Structure (SMILES)
4.66 µM	C[C@H](NS(=O)(=O)c1ccc(Cc2ccc3oc(=O)cc(C(F)(F)F)c3c2)cc1)c1ccccc1 [Example 172, 4-(2-Oxo-4-trifluoromethyl-2H-chromen-6-ylmethyl)-N-(1-phenylethyl)-benzenesulfonamide]
7.68 µM	O=c1cc(C(F)(F)F)c2cc(Cc3ccc(S(=O)(=O)NCc4ccc(F)cc4)cc3)ccc2o1 [Example 173, N-(4-Fluorobenzyl)-4-(2-oxo-4-trifluoromethyl-2H-chromen-6-ylmethyl)benzenesulfonamide]
5.5 µM	O=c1cc(C(F)(F)F)c2cc(Cc3ccc(S(=O)(=O)NCCCn4ccnc4)cc3)ccc2o1 [Example 174, N-(3-Imidazol-1-ylpropyl)-4-(2-oxo-4-triftuoromethyl-2H-chromen-6-ylmethyl)benzenesulfonamide]
6 µM	O=c1cc(C(F)(F)F)c2cc(Cc3ccc(S(=O)(=O)NCCc4cccs4)cc3)ccc2o1 [Example 176, 4-(2-Oxo-4-trifluoromethyl-2H-chromen-6-ylmethyl)-N-(2-thiophen-2-ylethyl)benzenesulfonamide]
7.74 µM	O=c1cc(C(F)(F)F)c2cc(Cc3ccc(S(=O)(=O)NC4CCc5ccccc54)cc3)ccc2o1 (centres unmarked) [Example 178, N-Indan-1-yl-4-(2-oxo-4-trifluoromethyl-2H-chromen-6-ylmethyl)benzenesulfonamide]
> 10 µM	CC(C)(NS(=O)(=O)c1ccc(Cc2ccc3oc(=O)cc(C(F)(F)F)c3c2)cc1)c1ccccc1 [Example 179, N-(1-Methyl-1-phenylethyl)-4-(2-oxo-4-trifluoromethyl-2H-chromen-6-ylmethyl)benzenesulfonamide]
2.06 µM	CC(CNS(=O)(=O)c1ccc(Cc2ccc3oc(=O)cc(C(F)(F)F)c3c2)cc1)c1ccccc1 (centres unmarked) [Example 180, 4-(2-Oxo-4-trifluoromethyl-2H-chromen-6-ylmethyl)-N-(2-phenylpropyl)-benzenesulfonamide]
6.96 µM	O=c1cc(C(F)(F)F)c2cc(Cc3ccc(S(=O)(=O)NCCOc4ccccc4)cc3)ccc2o1 [Example 181, 4-(2-Oxo-4-trifluoromethyl-2H-chromen-6-ylmethyl)-N-(2-phenoxyethyl)-benzenesulfonamide]
> 10 µM	O=c1cc(C(F)(F)F)c2cc(Cc3ccc(S(=O)(=O)NCc4cccc(Cl)c4)cc3)ccc2o1 [Example 186, N-(3-Chlorobenzyl)-4-(2-oxo-4-trifluoromethyl-2H-chromen-6-ylmethyl)benzenesulfonamide]
2.51 µM	O=c1cc(C(F)(F)F)c2cc(Cc3ccc(S(=O)(=O)NCc4ccc5c(c4)CCO5)cc3)ccc2o1 [Example 189, N-(2,3-Dihydrobenzofuran-5-ylmethyl)-4-(2-oxo-4-trifluoromethyl-2H-chromen-6-ylmethyl)benzenesulfonamide]
6.52 µM	O=c1cc(C(F)(F)F)c2cc(Cc3ccc(S(=O)(=O)NC(CCO)c4ccccc4)cc3)ccc2o1 (centres unmarked) [Example 192, N-(3-Hydroxy-1-phenylpropyl)-4-(2-oxo-4-trifluoromethyl-2H-chromen-6-ylmethyl)benzenesulfonamide]
5.93 µM	O=c1cc(C(F)(F)F)c2cc(Cc3ccc(S(=O)(=O)NCc4ccc(F)cc4Cl)cc3)ccc2o1 [Example 198]
4.73 µM	O=c1cc(C(F)(F)F)c2cc(Cc3ccc(S(=O)(=O)NCc4ccccc4OC(F)F)cc3)ccc2o1 [Example 199, N-(2-Difluoromethoxybenzyl)-4-(2-oxo-4-trifluoromethyl-2H-chromen-6-ylmethyl)benzenesulfonamide]
4.04 µM	O=c1cc(C(F)(F)F)c2cc(Cc3ccc(S(=O)(=O)NCc4ccccc4C(F)(F)F)cc3)ccc2o1 [Example 201, 4-(2-Oxo-4-trifluoromethyl-2H-chromen-6-ylmethyl)-N-(2-trifluoromethylbenzyl)-benzenesulfonamide]
2.19 µM	O=c1cc(C(F)(F)F)c2cc(Cc3ccc(S(=O)(=O)NCc4ccccc4Br)cc3)ccc2o1 [Example 203, N-(2-Bromobenzyl)-4-(2-oxo-4-trifluoromethyl-2H-chromen-6-ylmethyl)benzenesulfonamide]
5.74 µM	O=c1cc(C(F)(F)F)c2cc(Cc3ccc(S(=O)(=O)NCC(c4ccccc4)c4ccccc4)cc3)ccc2o1 [Example 206, N-(2,2-Diphenylethyl)-4-(2-oxo-4-trifluoromethyl-2H-chromen-6-ylmethyl)benzene-sulfonamide]
